Results: article PMC9428149, “Tackling recalcitrant Pseudomonas aeruginosa infections in critical illness via anti-virulence monotherapy” (Nature Communications, 2022)

Tests used:
[1] = tested on: pqsA promoter (PA14 PpqsA-GFPASV); experiment: pqsA-GFP reporter expression; type: cell-based, Pseudomonas aeruginosa; conditions: PA14 PpqsA-GFPASV; 50µM per b210 (method b76 says 10 µM)
Method: The expression levels of pqsA, which is representative of the pqsABCDE operon transcription, were monitored in the presence of the MvfR inhibitors using PA14 cells containing the PpqsA-GFPASV, a reporter construct of the pqsA promoter fused to a short half-life GFP gene in, such that quantitative quenching of fluorescence corresponds to pqsA promoter repression[22],[32],[48]. […] GFP fluorescence levels were measured at λex = 485 nm/λem = 535 nm after 10 seconds of shaking every 15 min up to 12 h. The IC50 of PpqsA-GFP expression levels was performed as above using the same 13 different concentrations (0.0122–50 μM) for each of the 13 compounds tested.

[2] = tested on: MvfR-regulated small molecules in PA14; experiment: Production of HAQs, 2-AA, DHQ and AA in PA14 cultures (LC-MS); conditions: PA14, 50µM inhibitor; for % Production AA: anthranilic acid, precursor control
[3] = tested on: pyocyanin production in PA14; experiment: Pyocyanin production assay; conditions: PA14; 50µM of each inhibitor (method says 10 μM); vs vehicle
Method: The over-day culture was grown to OD600nm 1.5., diluted again at 1:10,000 in 5 mL LB and incubated with 10 μM of the test compound or the vehicle control for 18 hours at 37 °C and 200 rpm in an incubator shaker. After 18 h, 1 mL of culture was centrifuged for 2 min at 20.000 x g. The supernatant was transferred to a new tube, 200 μL of this were loaded in a flat-bottom 96-well plate, and the pyocyanin levels were quantified by measuring at OD690nm in the infinite F200 plate reader using the Magellan software (Tecan, Switzerland). […] The percent of pyocyanin was calculated compared to the PA14 culture grown in the absence of compounds.
To determine the IC50 of pyocyanin production, we followed the same process as above. […] Using GraphPad Prism Software, the IC50 curve was plotted against percent inhibition of pyocyanin production at each concentration using PA14 in the absence of compounds as a control.

Structure (SMILES)	% Production pqsA-GFP [1]	% Production 2-AA [2]	% Production DHQ [2]	% Production HHQ [2]	% Production HQNO [2]	% Production PQS [2]	% Production AA [2]	% Production Pyocyanin [3]
Cc1cc(F)ccc1NC(=O)CC(=O)Nc1ccc(C#N)cc1 [D48]	44%	77%	91%	96%	94%	90%	59%	60%
CC(=O)c1ccc(NC(=O)CC(=O)Nc2ccc(C#N)cc2)cc1 [D49]	28%	90%	106%	120%	101%	119%	131%	66%
N#Cc1ccc(NC(=O)CC(=O)Nc2ccc(C(=O)C(F)(F)F)cc2)cc1 [D50]	102%	140%	89%	107%	103%	104%	176%	84%
N#Cc1ccc(NC(=O)CC(=O)Nc2ccc([N+](=O)[O-])cc2)cc1 [D51]	10%	7%	12%	3%	18%	6%	263%	3%
N#Cc1ccc(NC(=O)CC(=O)Nc2ccc(N)cc2)cc1 [D52]	90%	101%	103%	92%	92%	86%	115%	87%
CC(=O)Nc1ccc(NC(=O)CC(=O)Nc2ccc(C#N)cc2)cc1 [D53]	85%	93%	98%	75%	85%	88%	56%	103%
N#Cc1ccc(NC(=O)CC(=O)Nc2ccc(NC(=O)C(F)(F)F)cc2)cc1 [D54]	85%	117%	108%	103%	101%	101%	82%	94%
CS(=O)(=O)Nc1ccc(NC(=O)CC(=O)Nc2ccc(C#N)cc2)cc1 [D55]	131%	95%	80%	130%	98%	115%	117%	100%
N#Cc1ccc(NC(=O)CC(=O)Nc2ccc(I)cc2)cc1 [D56]	6%	72%	136%	63%	69%	62%	180%	13%
O=C(CC(=O)Nc1ccc([N+](=O)[O-])cc1)Nc1ccc(Oc2ccccc2)cc1 [D58]	9%	22%	45%	20%	23%	19%	101%	6%
O=C(CC(=O)Nc1ccc(Oc2ccccc2)cc1)Nc1ccc(I)cc1 [D59]	81%	92%	93%	99%	97%	93%	131%	72%
O=C(CC(=O)Nc1ccc([N+](=O)[O-])cc1O)Nc1ccc(Oc2ccccc2)cc1 [D61]	7%	12%	8%	1%	8%	6%	112%	6%
N#Cc1ccc(NC(=O)CC(=O)Nc2ccc(Oc3ccccc3)cc2)c(N)c1 [D62]	6%	10%	16%	2%	13%	9%	107%	7%
N#Cc1ccc(NC(=O)CC(=O)Nc2ccc(Oc3ccccc3)cc2)c(O)c1 [D63]	7%	5%	4%	0%	4%	4%	68%	6%
O=C(CC(=O)Nc1ccc(Oc2ccccc2)cc1)Nc1ccc(Br)cc1 [D64]	61%	78%	85%	88%	88%	100%	50%	48%
O=C(CC(=O)Nc1ccc(Oc2ccccc2)cc1)Nc1ccc(Cl)cc1 [D67]	41%	84%	105%	101%	105%	106%	155%	26%
O=C(CC(=O)Nc1ccc(Oc2ccccc2)cc1)Nc1ccc(F)cc1 [D68]	52%	84%	109%	121%	121%	137%	127%	33%
Cc1cc(F)ccc1NCC(=O)Nc1cccc(C#N)c1 [G1]	84%	122%	–	100%	101%	109%	–	103%
Cc1cc(F)ccc1NCC(=O)Nc1ccc(C(F)(F)F)cc1 [G2]	46%	68%	81%	110%	86%	93%	–	61%
Cc1cc(F)ccc1NCC(=O)Nc1ccccc1C#N [G3]	96%	123%	–	99%	111%	122%	–	113%
Cc1cc(F)ccc1NCC(=O)Nc1ccc(F)cc1 [G4]	92%	80%	85%	95%	92%	88%	–	84%
Cc1cc(F)ccc1OCC(=O)Nc1ccc(C#N)cc1 [G5]	98%	63%	83%	114%	111%	114%	54%	98%
Cc1cc(F)ccc1NC(C)C(=O)Nc1ccc(C#N)cc1 (stereo not drawn) [G6]	87%	152%	–	106%	131%	115%	–	110%
N#Cc1ccc(NC(=O)CNc2ccc(F)cc2)cc1 [G8]	63%	112%	–	87%	108%	124%	–	86%
Cc1ccccc1NCC(=O)Nc1ccc(C#N)cc1 [G9]	93%	64%	59%	76%	92%	124%	–	94%
